Here are results for three compounds from article PMC5320485, “4-isopropylcyclohexanol has potential analgesic effects through the inhibition of anoctamin 1, TRPV1 and TRPA1 channel activities” (Scientific Reports, 2017).

Broadly, the IC50 is the concentration that inhibits the measured activity by half. Lower therefore signals inhibition by little substance.

What all share (type): cell-based
In assay [1] the target is human TRPA1 (hTRPA1) (Homo sapiens, UniProt O75762). The assay is described as follows: whole-cell patch clamp in HEK293T cells; inhibits AITC currents at […] and weakly activates alone. (In patch-clamp work, channel activity is measured electrically.)
For assay [2], the target named is T1, mouse anoctamin 1 (mANO1) (Mus musculus, UniProt Q8BHY3).
T1 construct: gene Ano1
T1 sequence (Q8BHY3 1-960): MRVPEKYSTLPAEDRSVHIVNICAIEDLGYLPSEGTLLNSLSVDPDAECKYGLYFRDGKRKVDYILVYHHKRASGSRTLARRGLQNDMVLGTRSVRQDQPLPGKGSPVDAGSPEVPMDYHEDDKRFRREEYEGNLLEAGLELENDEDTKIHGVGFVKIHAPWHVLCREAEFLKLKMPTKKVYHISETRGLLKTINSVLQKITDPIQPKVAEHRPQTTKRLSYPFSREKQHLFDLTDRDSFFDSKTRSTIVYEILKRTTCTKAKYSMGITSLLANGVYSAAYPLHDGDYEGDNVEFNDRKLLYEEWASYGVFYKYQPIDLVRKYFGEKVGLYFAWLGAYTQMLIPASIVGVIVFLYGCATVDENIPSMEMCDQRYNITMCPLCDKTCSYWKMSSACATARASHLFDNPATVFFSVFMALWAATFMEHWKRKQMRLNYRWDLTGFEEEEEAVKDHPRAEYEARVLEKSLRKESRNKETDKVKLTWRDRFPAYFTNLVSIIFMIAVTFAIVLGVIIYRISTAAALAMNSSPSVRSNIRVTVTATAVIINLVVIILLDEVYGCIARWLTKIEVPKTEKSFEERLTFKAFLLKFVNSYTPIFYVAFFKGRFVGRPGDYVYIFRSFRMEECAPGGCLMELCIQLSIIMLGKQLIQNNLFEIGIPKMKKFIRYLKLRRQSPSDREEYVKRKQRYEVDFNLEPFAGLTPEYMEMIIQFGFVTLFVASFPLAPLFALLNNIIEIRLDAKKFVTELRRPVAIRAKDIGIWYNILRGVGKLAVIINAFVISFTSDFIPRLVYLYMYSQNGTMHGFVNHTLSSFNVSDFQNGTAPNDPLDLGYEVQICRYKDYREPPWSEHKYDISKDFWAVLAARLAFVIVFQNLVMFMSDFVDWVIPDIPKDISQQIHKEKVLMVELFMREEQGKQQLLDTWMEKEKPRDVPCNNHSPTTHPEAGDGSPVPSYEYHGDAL
Put plainly: whole-cell patch clamp in HEK293T cells, dose-response at −[…] mV.

In assay [3] the target is T1, mouse anoctamin 1 (mANO1). The assay is described as follows: whole-cell patch clamp in HEK293T cells at […].

human TRPA1 (hTRPA1), sequence (O75762 whole entry): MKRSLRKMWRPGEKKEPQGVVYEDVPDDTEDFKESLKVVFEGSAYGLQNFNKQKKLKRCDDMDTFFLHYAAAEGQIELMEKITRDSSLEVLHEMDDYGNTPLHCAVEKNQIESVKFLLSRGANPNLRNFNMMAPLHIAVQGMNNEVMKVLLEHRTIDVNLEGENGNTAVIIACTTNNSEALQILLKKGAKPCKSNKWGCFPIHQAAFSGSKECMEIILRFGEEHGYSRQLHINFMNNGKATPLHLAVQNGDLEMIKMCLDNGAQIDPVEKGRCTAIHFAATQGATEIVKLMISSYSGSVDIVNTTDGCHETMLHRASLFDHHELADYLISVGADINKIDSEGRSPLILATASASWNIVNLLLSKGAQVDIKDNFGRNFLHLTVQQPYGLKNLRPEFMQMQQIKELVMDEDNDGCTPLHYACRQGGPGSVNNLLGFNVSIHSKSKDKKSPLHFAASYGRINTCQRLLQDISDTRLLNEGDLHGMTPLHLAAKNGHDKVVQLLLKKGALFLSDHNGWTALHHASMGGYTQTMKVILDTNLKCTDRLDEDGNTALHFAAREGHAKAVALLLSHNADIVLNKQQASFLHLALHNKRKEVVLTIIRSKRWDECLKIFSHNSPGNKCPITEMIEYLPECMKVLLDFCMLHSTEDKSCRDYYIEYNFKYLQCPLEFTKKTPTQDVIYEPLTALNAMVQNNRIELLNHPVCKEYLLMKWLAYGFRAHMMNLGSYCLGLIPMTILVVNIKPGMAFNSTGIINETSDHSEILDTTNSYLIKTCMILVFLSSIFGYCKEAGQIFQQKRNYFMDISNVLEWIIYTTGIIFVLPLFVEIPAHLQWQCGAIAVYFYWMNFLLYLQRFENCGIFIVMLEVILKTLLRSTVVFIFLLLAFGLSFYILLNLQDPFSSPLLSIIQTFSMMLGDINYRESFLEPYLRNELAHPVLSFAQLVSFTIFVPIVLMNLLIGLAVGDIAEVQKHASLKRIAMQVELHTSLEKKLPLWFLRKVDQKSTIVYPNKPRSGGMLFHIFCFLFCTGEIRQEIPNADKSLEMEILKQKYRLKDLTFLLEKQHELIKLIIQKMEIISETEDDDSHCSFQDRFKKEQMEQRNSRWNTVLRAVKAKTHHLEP

In the case of `CC(C)C1CCC(O)CC1` (stereo not shown) [4-iPr-CyH-OH, 4-isopropylcyclohexanol], the “whole-cell patch clamp in HEK293T cells; inhibits AITC currents at 3 mM and weak” value in assay [1] was 4-iPr-CyH-OH did not activate hTRPV1 (Fig. 5d), yet did slightly but significantly activate hTRPA1. Further, half-maximal inhibition in assay [2] (IC50) required 1090 µM.

With `CC(C)C1CCCCC1` [iPr-CyH, isopropylcyclohexane], the “whole-cell patch clamp in HEK293T cells at 3 mM” value in assay [3] is “isopropylcyclohexane (iPr-CyH) strongly inhibited mANO1 currents to a similar degree as that seen for d-menthol”.

In assay [2], `CC(C)[C@@H]1CC[C@@H](C)C[C@H]1O` [l-menthol] showed an IC50 of 441 µM.
